In publication PMC5845004, “Novel (p)ppGpp Binding and Metabolizing Proteins of Escherichia coli” (mBio, 2018):

Experiments:
NudG [1] = target: T1, NudG (Escherichia coli, UniProt P77788); assay: DRaCALA competition assay, lysate with overproduced NudG; assay type: binding, E. coli; conditions: whole-cell lysate, 2 nM hot (p)ppGpp, 100 µM cold competitor
T1 construct: expressed in transfected cells; host or cells: E. coli ASKA collection strain, IPTG-induced, whole-cell lysate
Description: (§1) Bacterial cells were collected and frozen at −80°C.

NudG [2] = target: T1, NudG; assay: In vitro cleavage assay (TLC), NudG; assay type: biochemical, E. coli; conditions: 1 µM NudG, 10 nM hot ppGpp, 100 µM competitor, 30°C
Description: (§2) The purified His6-MutT and His6-NudG proteins were tested for their relative levels of cleavage of ppGpp compared to those seen with their native substrates. For this, a 1 μM concentration of each protein and a 10 nM concentration of [α-^32P]ppGpp were used together with 100 μM concentrations of cold competitors [ppGpp, GTP, ATP, 8-oxo-(d)GTP, 2-hydroxyl-(d)ATP] or 50 mM EDTA in buffer B. The samples were incubated at 30°C for 10 min and for 1 h before the reactions were stopped by adding 50 mM EDTA. The cleavage products were resolved by TLC as described above. The purified His6-NadR and His6-TrmE proteins were tested for their cleavage of both GTP and ppGpp. For cleavage of GTP, 10 μM concentrations of His6-MBP, His6-TrmE, and 20 μM His6-NadR proteins were used with 2 nM [α-^32P]GTP and 100 μM cold GTP in buffer B. For cleavage of ppGpp, 10 μM concentrations of His6-TrmE, His6-MBP, and His6-NadR proteins were used with 10 nM [α-^32P]ppGpp in buffer B. Of note, for His6-TrmE, another reaction was also performed in buffer B supplemented with 100 mM KCl. The reactions were performed at RT for 10 min and were stopped by adding 17% formic acid. The cleavage products were resolved by TLC as described above.
(§3) A 20 μM concentration of each of purified proteins MutT, NudG, NadR, TrmE, and MBP (as a negative control) was incubated with 100 μM ppGpp in buffer B (containing 40 mM Tris [pH 7.5], 100 mM NaCl, and 10 mM MgCl2) for 20 min at room temperature. Samples were snap-frozen on dry ice and analyzed with UPLC-MS afterward. All samples and buffers were stored at −80°C, thawed on ice, and kept at 4°C during analysis. For the analysis, a UPLC-quadrupole time of flight (UPLC-qTOF) method (Waters) was used. Analysis conditions were as follows: column, zic-HILIC (Merck Millipore) (150 by 2.1 mm, […], gradient elution, flow rate set to 0.3 ml/min); mobile phase A, 10 mM ammonium acetate (pH 5); mobile phase B, 90% acetonitrile with 10 mM ammonium acetate (pH 5). The gradient was set up as follows: min 0 to 2, 80% B; min 2 to 16, 80% B to 50% B; hold until min 20; injection volume, 4 µl. The detection conditions were as follows: photodiode array detector (PDA), […] (evaluated at 260 nm); MS, ionization; electrospray ionization (ESI+), scan, 200 to 800 m/z with lock mass correction. Analytes were identified by their accurate mass and retention time data for a known standard dissolved in used buffer (for the chemicals of the same nominal masses). These standards were either synthesized and their structures confirmed by nuclear magnetic resonance (NMR) (for ppGp, pGpp, and pGp) or purchased (ppGpp was purchased from Jena Biocsience and GTP from Sigma-Aldrich).

MutT [3] = target: T2, MutT (Escherichia coli, UniProt P08337); assay: In vitro cleavage assay (TLC), MutT; assay type: biochemical, E. coli; conditions: 1 µM MutT, 10 nM hot ppGpp, 100 µM competitor, 30°C, up to 1 h
Description: as §2, §3

MutT [4] = target: T2, MutT; conditions: whole-cell lysate, 2 nM hot (p)ppGpp, 100 µM cold competitor
Description: DRaCALA screening was performed essentially as described before ([39]) with minor modifications. Briefly, ASKA collection strains were inoculated into 1.5 ml LB broth with 25 μg/ml chloramphenicol in deep 96-well plates (Greiner) and grown over night at 30°C. IPTG (1 mM) was added the next morning to induce protein expression at 30°C for 6 h. Bacterial cells were collected and frozen at −80°C. To lyse cells, 150 μl buffer B with 2 mM phenylmethylsulfonyl fluoride (PMSF), 40 μg/ml DNase 1, and 0.5 mg/ml lysozyme was used to resuspend cell pellets and then subjected to three freeze-thaw cycles before Benzonase (Sigma) (2.5 U/well) was added to reduce lysate viscosity. A 20-μl volume of lysate was transferred into a 96-well V-bottom plate (Sterilin), incubated at 37°C for 15 min, and placed on ice. […] Membranes were dried for 10 min at RT, and binding signals were exposed to a BAS IP screen (GE Healthcare) and detected by the use of a Typhoon FLA-7000 PhosphorImager.
For competition assays, purified proteins at the specified concentrations were incubated with 2 nM [α-^32P]ppGpp or [α-^32P]pppGpp in the presence of 100 μM competitor nucleotides in binding buffer B. The reaction mixtures were incubated for 5 min at RT, 2 µl was spotted onto nitrocellulose membranes, and the values corresponding to the bound fractions were determined.

YgdH [5] = target: T3, YgdH (Escherichia coli, UniProt P0ADR8); assay: DRaCALA competition assay, YgdH; assay type: binding, E. coli; conditions: 50 µM YgdH, 100 µM cold competitor, without or with 1.5 mM magnesium
Description: (§4) For Kd measurements by DRaCALA, 2-fold serial dilutions from the highest possible concentrations of each purified protein were prepared in binding buffer B, and approximately 2 nM concentrations of α-^32P-labeled ppGpp, pppGpp, GTP, and GDP were added. The mixtures were incubated for 5 min at RT before spotting of 2 µl of the reaction mixtures onto nitrocellulose membranes. […] For competition assays, purified proteins at the specified concentrations were incubated with 2 nM [α-^32P]ppGpp or [α-^32P]pppGpp in the presence of 100 μM competitor nucleotides in binding buffer B. The reaction mixtures were incubated for 5 min at RT, 2 µl was spotted onto nitrocellulose membranes, and the values corresponding to the bound fractions were determined. EDTA was added at excess concentrations as specified for each case.

UshA = target: T4, UshA (Escherichia coli, UniProt P07024); assay: DRaCALA competition assay, lysate with overexpressed UshA; assay type: binding; conditions: cell lysate, 2 nM hot (p)ppGpp, 100 µM cold competitor
T4 sequence (P07024 26-550): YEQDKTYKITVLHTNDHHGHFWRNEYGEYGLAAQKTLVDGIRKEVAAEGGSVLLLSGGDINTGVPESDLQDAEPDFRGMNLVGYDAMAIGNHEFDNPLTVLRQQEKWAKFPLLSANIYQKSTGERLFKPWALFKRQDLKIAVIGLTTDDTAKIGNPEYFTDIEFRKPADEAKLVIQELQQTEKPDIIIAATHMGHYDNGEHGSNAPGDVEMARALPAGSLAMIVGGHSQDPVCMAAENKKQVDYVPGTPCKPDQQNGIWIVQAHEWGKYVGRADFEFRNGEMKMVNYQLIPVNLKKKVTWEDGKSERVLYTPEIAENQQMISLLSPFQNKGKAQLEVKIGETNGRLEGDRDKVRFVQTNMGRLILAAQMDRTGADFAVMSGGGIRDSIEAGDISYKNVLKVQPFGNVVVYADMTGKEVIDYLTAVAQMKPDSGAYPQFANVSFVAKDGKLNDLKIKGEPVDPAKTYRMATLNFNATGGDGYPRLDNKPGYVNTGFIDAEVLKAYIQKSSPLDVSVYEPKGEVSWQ
Description: as §1

Der = Der (Escherichia coli, UniProt P0A6P5); assay: DRaCALA Kd determination, purified Der; assay type: binding, E. coli; conditions: 2 nM 32P-labeled ligand, read-out: apparent Kd, Der
Description: as §4

HypB = HypB (Escherichia coli, UniProt P0AAN3); assay: DRaCALA Kd determination, purified HypB; assay type: binding, E. coli; conditions: 2 nM 32P-labeled ligand, read-out: apparent Kd, HypB
Description: as §4

RF3 (PrfC) = RF3 (PrfC) (Escherichia coli, UniProt P0A7I4); assay: DRaCALA Kd determination, purified RF3; assay type: binding, E. coli; conditions: 2 nM 32P-labeled ligand, read-out: apparent Kd, RF3 (PrfC)
Description: (§5) For Kd measurements by DRaCALA, 2-fold serial dilutions from the highest possible concentrations of each purified protein were prepared in binding buffer B, and approximately 2 nM concentrations of α-^32P-labeled ppGpp, pppGpp, GTP, and GDP were added. The mixtures were incubated for 5 min at RT before spotting of 2 µl of the reaction mixtures onto nitrocellulose membranes. The fractions of bound ligand and the apparent Kd values were calculated as previously described ([37]).

TrmE [6] = target: T5, TrmE (Escherichia coli, UniProt P25522); assay: In vitro cleavage assay (TLC), TrmE; assay type: biochemical, E. coli; conditions: 10 µM TrmE, buffer B, with 100 mM potassium where stated, 10 min
Description: as §2
A 20 μM concentration of each of purified proteins MutT, NudG, NadR, TrmE, and MBP (as a negative control) was incubated with 100 μM ppGpp in buffer B (containing 40 mM Tris [pH 7.5], 100 mM NaCl, and 10 mM MgCl2) for 20 min at room temperature. Samples were snap-frozen on dry ice and analyzed with UPLC-MS afterward. All samples and buffers were stored at −80°C, thawed on ice, and kept at 4°C during analysis. For the analysis, a UPLC-quadrupole time of flight (UPLC-qTOF) method (Waters) was used. […] The detection conditions were as follows: photodiode array detector (PDA), […] (evaluated at 260 nm); MS, ionization; electrospray ionization (ESI+), scan, 200 to 800 m/z with lock mass correction. […]

TrmE [7] = target: T5, TrmE; assay: DRaCALA Kd determination, purified TrmE; assay type: binding, E. coli; conditions: in the presence of magnesium, read-out: apparent Kd, TrmE
Description: as §4

SaDer = SaDer (Staphylococcus aureus, UniProt A6QH24); assay: DRaCALA Kd determination, SaDer; assay type: binding, S. aureus
Description: as §5

YgdH [8] = target: T3, YgdH; assay: DRaCALA binding and Kd determination, purified YgdH; parameters: species or system E. coli; conditions: DRaCALA, in the presence of EDTA (without Mg2+); read-out: Kd, YgdH + EDTA (converted)
Description: as §4

Hpt = Hpt (Escherichia coli, UniProt P0A9M2); assay: DRaCALA competition assay, Hpt; assay type: binding, E. coli; conditions: 20 µM Hpt, 2 nM hot ppGpp, 100 µM cold competitor
Description: For Kd measurements by DRaCALA, 2-fold serial dilutions from the highest possible concentrations of each purified protein were prepared in binding buffer B, and approximately 2 nM concentrations of α-^32P-labeled ppGpp, pppGpp, GTP, and GDP were added. The mixtures were incubated for 5 min at RT before spotting of 2 µl of the reaction mixtures onto nitrocellulose membranes. The fractions of bound ligand and the apparent Kd values were calculated as previously described ([37]). For competition assays, purified proteins at the specified concentrations were incubated with 2 nM [α-^32P]ppGpp or [α-^32P]pppGpp in the presence of 100 μM competitor nucleotides in binding buffer B. The reaction mixtures were incubated for 5 min at RT, 2 µl was spotted onto nitrocellulose membranes, and the values corresponding to the bound fractions were determined. EDTA was added at excess concentrations as specified for each case.

[9] = target: the molecule itself; assay: SEC; size exclusion FPLC profile of purified His6-YgdH (53 kDa) compared with protein standards

T1 sequence (P77788 whole entry): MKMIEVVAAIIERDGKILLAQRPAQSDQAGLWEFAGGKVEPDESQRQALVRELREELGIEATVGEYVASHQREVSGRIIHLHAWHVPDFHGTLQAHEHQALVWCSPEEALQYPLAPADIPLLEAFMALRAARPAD
T2 sequence (P08337 whole entry): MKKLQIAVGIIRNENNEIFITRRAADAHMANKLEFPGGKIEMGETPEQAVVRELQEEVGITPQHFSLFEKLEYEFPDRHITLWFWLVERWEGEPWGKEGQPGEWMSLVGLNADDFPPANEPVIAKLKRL
Chain of Der (P0A6P5 whole entry): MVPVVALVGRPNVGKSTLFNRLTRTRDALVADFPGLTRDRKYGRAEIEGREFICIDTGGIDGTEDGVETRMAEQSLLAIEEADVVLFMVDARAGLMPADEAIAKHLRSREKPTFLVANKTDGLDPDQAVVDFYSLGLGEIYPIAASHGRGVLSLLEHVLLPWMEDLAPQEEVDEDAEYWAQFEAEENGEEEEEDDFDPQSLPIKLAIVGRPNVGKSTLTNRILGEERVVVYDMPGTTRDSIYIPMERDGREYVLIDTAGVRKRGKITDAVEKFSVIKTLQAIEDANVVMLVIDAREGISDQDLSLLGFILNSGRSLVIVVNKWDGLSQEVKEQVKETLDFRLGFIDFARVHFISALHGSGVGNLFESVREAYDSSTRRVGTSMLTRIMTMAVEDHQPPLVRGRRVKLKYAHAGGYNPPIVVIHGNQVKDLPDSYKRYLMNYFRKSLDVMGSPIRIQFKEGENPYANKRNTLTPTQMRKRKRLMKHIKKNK
T5 sequence (P25522 whole entry): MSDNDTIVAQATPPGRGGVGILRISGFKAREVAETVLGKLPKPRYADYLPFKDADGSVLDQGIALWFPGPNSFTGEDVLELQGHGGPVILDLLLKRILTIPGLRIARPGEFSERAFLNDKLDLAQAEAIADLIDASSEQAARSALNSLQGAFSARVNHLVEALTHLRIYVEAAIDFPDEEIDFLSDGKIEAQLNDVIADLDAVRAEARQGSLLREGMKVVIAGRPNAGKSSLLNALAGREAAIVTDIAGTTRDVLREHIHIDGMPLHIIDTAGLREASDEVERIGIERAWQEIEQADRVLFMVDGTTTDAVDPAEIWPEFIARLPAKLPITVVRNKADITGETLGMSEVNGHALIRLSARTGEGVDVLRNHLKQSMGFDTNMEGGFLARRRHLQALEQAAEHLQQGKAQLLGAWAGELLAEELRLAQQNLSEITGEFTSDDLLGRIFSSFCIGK
Chain of Hpt (P0A9M2 whole entry): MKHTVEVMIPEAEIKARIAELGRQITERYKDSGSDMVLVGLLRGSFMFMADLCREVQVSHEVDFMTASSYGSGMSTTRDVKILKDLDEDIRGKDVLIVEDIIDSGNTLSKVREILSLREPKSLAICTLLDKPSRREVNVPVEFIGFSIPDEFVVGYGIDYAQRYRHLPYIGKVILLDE
Chain of HypB (P0AAN3 whole entry): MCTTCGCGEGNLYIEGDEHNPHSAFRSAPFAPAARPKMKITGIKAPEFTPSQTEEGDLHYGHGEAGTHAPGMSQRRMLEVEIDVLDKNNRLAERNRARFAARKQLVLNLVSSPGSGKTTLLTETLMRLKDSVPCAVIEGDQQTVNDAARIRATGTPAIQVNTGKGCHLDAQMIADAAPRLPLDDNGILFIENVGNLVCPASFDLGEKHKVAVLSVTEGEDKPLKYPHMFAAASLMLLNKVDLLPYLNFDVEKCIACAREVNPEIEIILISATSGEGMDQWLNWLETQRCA
Chain of RF3 (PrfC) (P0A7I4 whole entry): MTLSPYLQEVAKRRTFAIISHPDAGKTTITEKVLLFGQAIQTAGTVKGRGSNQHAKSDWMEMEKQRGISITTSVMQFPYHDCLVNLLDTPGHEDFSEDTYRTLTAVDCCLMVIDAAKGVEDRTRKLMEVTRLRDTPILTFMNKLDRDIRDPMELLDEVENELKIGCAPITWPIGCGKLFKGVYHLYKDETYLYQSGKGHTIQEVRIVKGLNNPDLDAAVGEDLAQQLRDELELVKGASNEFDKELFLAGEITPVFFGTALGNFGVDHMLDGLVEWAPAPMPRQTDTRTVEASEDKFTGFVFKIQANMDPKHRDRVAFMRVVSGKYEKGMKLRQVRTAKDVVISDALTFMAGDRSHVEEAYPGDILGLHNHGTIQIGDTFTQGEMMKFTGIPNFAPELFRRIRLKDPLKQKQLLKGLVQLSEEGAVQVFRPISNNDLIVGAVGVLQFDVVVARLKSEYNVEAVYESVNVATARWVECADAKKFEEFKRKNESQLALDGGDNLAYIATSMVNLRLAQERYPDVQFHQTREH
Chain of SaDer (A6QH24 whole entry): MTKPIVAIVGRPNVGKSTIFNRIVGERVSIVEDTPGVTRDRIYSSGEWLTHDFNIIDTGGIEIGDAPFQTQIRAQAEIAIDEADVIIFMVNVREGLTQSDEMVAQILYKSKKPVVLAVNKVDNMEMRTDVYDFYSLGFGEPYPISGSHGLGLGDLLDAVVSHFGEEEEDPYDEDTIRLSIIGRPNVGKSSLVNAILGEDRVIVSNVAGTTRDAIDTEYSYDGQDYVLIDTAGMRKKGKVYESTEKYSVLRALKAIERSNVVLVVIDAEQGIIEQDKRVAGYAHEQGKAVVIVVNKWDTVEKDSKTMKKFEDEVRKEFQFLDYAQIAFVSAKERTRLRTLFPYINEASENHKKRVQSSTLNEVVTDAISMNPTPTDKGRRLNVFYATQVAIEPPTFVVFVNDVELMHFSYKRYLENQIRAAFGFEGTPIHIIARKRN

2-OH-(d)ATP
competition for NudG-bound (p)ppGpp (NudG [1]): comparable to unlabeled ppGpp | inhibition of [α-32P]ppGpp cleavage by NudG (NudG [2]): slightly better than ppGpp

8-oxo-(d)GTP
inhibition of [α-32P]ppGpp cleavage by MutT (MutT [3]): totally inhibited | competition for MutT-bound (p)ppGpp (MutT [4]): completely outcompete

Nc1ncnc2c1ncn2[C@@H]1O[C@H](COP(=O)(O)O)[C@@H](O)[C@H]1O [AMP]
competition for [α-32P]ppGpp binding to YgdH by YgdH substrates (YgdH [5]): none of them could outcompete ppGpp

Nc1ncnc2c1ncn2[C@@H]1O[C@H](COP(=O)(O)OP(=O)(O)OP(=O)(O)O)[C@@H](O)[C@H]1O [ATP]
competition for NudG-bound (p)ppGpp (NudG [1]): did not compete

Nc1nc2c(ncn2[C@@H]2O[C@H](COP(=O)(O)OP(=O)(O)O)[C@@H](O)[C@H]2O)c(=O)[nH]1 [GDP]
competition for NudG-bound (p)ppGpp (NudG [1]): but not the structurally very similar GTP and GDP | competition for UshA-bound (p)ppGpp (UshA): but not the structurally very similar GTP and GDP | Kd (Der): 1.3 ± 0.1 µM

Nc1nc2c(ncn2[C@@H]2O[C@H](COP(=O)(O)O)[C@@H](O)[C@H]2O)c(=O)[nH]1 [GMP]
competition for [α-32P]ppGpp binding to YgdH by YgdH substrates (YgdH [5]): none of them could outcompete ppGpp

Nc1nc2c(ncn2[C@@H]2O[C@H](COP(=O)(O)OP(=O)(O)OP(=O)(O)O)[C@@H](O)[C@H]2O)c(=O)[nH]1 [GTP]
Kd (HypB): 9 ± 1.8 µM | competition for NudG-bound (p)ppGpp (NudG [1]): but not the structurally very similar GTP and GDP | Kd (RF3 (PrfC)): 29.3 ± 9.8 µM | competition for UshA-bound (p)ppGpp (UshA): but not the structurally very similar GTP and GDP | cleavage by TrmE (TrmE [6]): converted almost all GTP | inhibition of [α-32P]ppGpp cleavage by MutT (MutT [3]): very limited inhibitory effects | Kd (TrmE [7]): 4.6 ± 1.1 µM | Kd (SaDer): 3.5 ± 0.8 µM | Kd (YgdH [8]): 21.4 ± 11.5 µM | Kd (Der): 13.7 ± 7.1 µM

O=P(O)(O)OC[C@H]1OC(OP(=O)(O)OP(=O)(O)O)[C@H](O)[C@@H]1O (stereo partly shown) [PRPP, phosphoribosyl pyrophosphate]
competition for bound [α-32P]ppGpp on Hpt (Hpt): partially outcompete

B1: YgdH (ECK2790), His6-YgdH (enzyme, E. coli K-12, UniProt P0ADR8 1-454, looked up)
chain: MITHISPLGSMDMLSQLEVDMLKRTASSDLYQLFRNCSLAVLNSGSLTDNSKELLSRFENFDINVLRRERGVKLELINPPEEAFVDGRIIRALQANLFAVLRDILFVYGQIHNTVRFPNLNLDNSVHITNLVFSILRNARALHVGEAPNMVVCWGGHSINENEYLYARRVGNQLGLRELNICTGCGPGAMEAPMKGAAVGHAQQRYKDSRFIGMTEPSIIAAEPPNPLVNELIIMPDIEKRLEAFVRIAHGIIIFPGGVGTAEELLYLLGILMNPANKDQVLPLILTGPKESADYFRVLDEFVVHTLGENARRHYRIIIDDAAEVARQMKKSMPLVKENRRDTGDAYSFNWSMRIAPDLQMPFEPSHENMANLKLYPDQPVEVLAADLRRAFSGIVAGNVKEVGIRAIEEFGPYKINGDKEIMRRMDDLLQGFVAQHRMKLPGSAYIPCYEICT
notes: YgdH (ECK2790), nucleotide nucleosidase of E. coli K-12, expressed from the ASKA plasmid library (pCA24N vector); The ASKA clone carries the gene of E. coli K-12; The printed size of His6-YgdH is 53 kDa; source: E. coli ASKA collection AG1 strain, purified (Ni-NTA, size exclusion chromatography); not shown: His6, N-terminal, kept
stoichiometry N [9]: 4
